From patent US20230391765A1, “HETEROBIFUNCTIONAL COMPOUNDS AS DEGRADERS OF ENL” (ICAHN SCHOOL OF MEDICINE AT MOUNT SINAI, priority 2020, published 2023)

How the values were obtained:
ENL [1] = target: T1, ENL (Homo sapiens, UniProt Q03111); test: Western blot of ENL protein levels in MV4; 11 cells; assay type: cell-based
T1 construct: Cells were lysed and expression of endogenous ENL was assessed by Western blot analysis; host or cells: MV4;11
T1 sequence (Q03111 1-559): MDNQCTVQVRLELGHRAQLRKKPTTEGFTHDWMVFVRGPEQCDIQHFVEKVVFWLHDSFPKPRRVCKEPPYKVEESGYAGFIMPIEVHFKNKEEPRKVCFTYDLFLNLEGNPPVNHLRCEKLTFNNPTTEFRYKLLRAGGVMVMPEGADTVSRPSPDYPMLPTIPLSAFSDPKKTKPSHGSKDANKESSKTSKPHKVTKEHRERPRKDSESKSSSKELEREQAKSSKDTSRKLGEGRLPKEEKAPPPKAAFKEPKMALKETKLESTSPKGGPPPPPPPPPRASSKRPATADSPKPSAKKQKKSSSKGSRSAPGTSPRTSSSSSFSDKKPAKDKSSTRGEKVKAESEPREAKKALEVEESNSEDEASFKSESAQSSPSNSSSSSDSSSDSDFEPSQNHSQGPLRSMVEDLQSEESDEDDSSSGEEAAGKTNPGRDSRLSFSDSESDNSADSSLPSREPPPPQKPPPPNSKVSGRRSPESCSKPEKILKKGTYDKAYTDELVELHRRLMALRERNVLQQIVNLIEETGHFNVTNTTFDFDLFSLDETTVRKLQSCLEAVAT
How it was run: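 MV4;11 cells treated versus DMSO at 1 and 10 μM for 24 h or 6 h, or at 0.3-30 μM for 24 h; time course at 4 μM over 12-36 h. Proteasome dependence tested with 1 μM degrader ± 1 μM MG132 for 6 h. ENL (and GAS41) levels in total lysates assessed by Western blot with GAPDH/β-actin loading controls.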

ENL [2] = target: T1, ENL; test: Western blot of ENL protein levels in MOLM13 cells; assay type: cell-based
How it was run: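 Leukemia cells (MOLM13, MV4;11, Jurkat) treated with degraders in DMSO at 0–10 μM for 6 h or 24 h, or at 4 μM (MV4;11) / 8 μM (MOLM13) over 12–36 h. ENL levels read by Western blot of total lysates, GAPDH/β-actin loading controls; DMSO vehicle control.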

ENL target genes = test: RT-qPCR of ENL target genes in MOLM13 cells; assay type: cell-based; conditions: MOLM13 cells, 0.5, 1, 2, 4 and 8 μM for 24 h
Experimental: MOLM13 cells were treated with LQ076-122 (FIG. 14A) and LQ081-108 (FIG. 14B) at 0.5, 1, 2, 4, and 8 μM for 24 h. […] RT-qPCR analysis was performed to detect the mRNA levels of selected ENL target genes.
Total RNA was extracted using the RNeasy Plus kit (Qiagen) and reverse-transcribed using the iScript cDNA Synthesis kit (Bio-Rad). RT-qPCR was performed using the Power SYBR Green PCR Master Mix (Applied Biosystems) on the CFX96 Real-Time PCR system (Bio-Rad). Gene expressions were calculated following normalization to 18s rRNA amounts using the comparative cycle threshold (Ct) method.

[3] = In vivo pharmacokinetics (PK) study, plasma concentration; set-up: species or system C57BL/6 mice; conditions: mice, single 50 mg/kg IP injection
Experimental: Three C57BL/6 mice at 6-8 weeks of age were used in PK study for each time point. After a single dose intraperitoneal (IP) injection of ENL degrader LQ076-122 (50 mg/kg), plasma concentrations of degrader were measured at 6 time points (0.5, 1, 2, 4, 8 and 12 h) from each test animal. The concentrations of LQ076-122 in plasma were maintained above 2 μM for 6 h with the maximum plasma concentration of about 6 μM.
The standard mouse PK study was conducted by Charles River Laboratories. Three C57BL/6 mice at 6-8 weeks of age were used for each time point. After a single dose intraperitoneal (IP) injection of ENL degrader (50 mg/kg), plasma concentrations of degrader were measured at […] (in hours: 0.5, 1, 2, 4, 8 and 12 h) from each test animal.

- reduction of ENL protein levels (ENL [1]; 11 cells, 10 μM, 24 h): effective in reducing ENL protein levels
- concentration in plasma maintained for 6 h [3]: above 2 μM
- maximum plasma concentration [3]: about 6 μM
Compound: Cc1ncsc1-c1ccc(CNC(=O)[C@@H]2C[C@@H](O)CN2C(=O)[C@@H](NC(=O)CCCCCCCCCCNC(=O)c2ccc(C(=O)Nc3ccc4[nH]c(CN5CCC[C@@H]5C)nc4c3)cc2)C(C)(C)C)cc1 [LQ076-122, N^1-(11-(((S)-1-((2S,4R)-4-hydroxy-2-((4-(4-methylthiazol-5-yl)benzyl)carbamoyl)pyrrolidin-1-yl)-3,3-dimethyl-1-oxobutan-2-yl)amino)-11-oxoundecyl)-N^4-(2-(((S)-2-methylpyrrolidin-1-yl)methyl)-1H-benzo[d]imidazol-5-yl)terephthalamide]
- reduction of ENL protein levels (ENL [1]; 11 cells, 0-8 μM for 24 h): reduced ENL protein levels in a concentration-dependent manner
- reduction of ENL protein levels, time course (ENL [1]; 11 cells, 4 μM for 12, 16, 20, 24 and 36 h): reduced ENL protein levels in a time-dependent manner
- reduction of ENL protein level (ENL [1]; 11 cells, 0.3, 1, 3, 10 and 30 μM for 24 h): selectively reduced the ENL protein level
- reduction of ENL protein levels (ENL [1]; 11 cells, 0.3, 1, 3 and 10 μM for 12 and 24 h): reduced ENL protein levels in a concentration- and time-dependent manner
- reduction of ENL protein levels (ENL [2]; 0-8 μM for 24 h): reduced ENL protein levels in a concentration-dependent manner
- reduction of ENL protein levels, time course (ENL [2]; 8 μM for 12, 16, 20, 24 and 36 h): reduced ENL protein levels in a time-dependent manner
- ENL target gene expression (mRNA levels) (ENL target genes): reduced ENL target gene expression in a concentration-dependent manner
